What is called EC50 is the concentration that produces a half-maximal response. Low readings indicate higher potency in that assay, high ones lower potency in that assay. A word on the IC50: it is the concentration that inhibits the measured activity by half.

Here are results for 44 molecules from patent US20130267571A1, “TERPENOID ANALOGUES AND USES THEREOF FOR TREATING NEUROLOGICAL CONDITIONS” (NeuroQuest Inc., priority 2010, published 2013).

Where only a bound is given, the exact number is not on record here.

One assay deals with zebrafish embryos. The experiment in a line: Zebrafish response (anaesthesia) assay, touch response/swim behaviour. It is filed as in vivo. The conditions noted are these: Danio rerio, 1.5 h; complete anaesthesia (scale 1) in 50% of AB wild type embryos (54 hpf), 90 min at 28° C. From the text: Briefly, the ZEA assay involves applying essential oils, fractions or individual compounds to developmentally staged zebrafish embryos followed by monitoring of embryonic touch response/swim behaviour and evaluation of the dose response relationship for each substance. Using a four point scale to describe the embryonic behaviours (Table 4), initial analysis focused on monitoring and recording these changes and evaluating the level of bioactivity. The effective concentration to generate complete anaesthesia in 50% of the embryos (EC50), were evaluated as follows:
Compounds are tested on developmentally staged AB “wild type” zebrafish embryos (54 hpf+/−2 hpf) at concentrations ranging between 10 and 400 μM.
Each compound is diluted in a 95% ethanol or DMSO carrier to create a working stock solution from which appropriate dilutions are made in standard embryo E3 media.
1000 μl of each concentration or appropriate carrier control are added to 10 wild type AB embryos in a single well of a 24 well plate, in duplicate.
The embryos are incubated for 90 min at 28° C. (optimal temperature for embryonic growth) in the diluted compound.
A four point scale (Table 4) is used to evaluate the touch response and swim behaviour for each embryo in all wells.
The effectiveness of the compound will be based on its ability to generate complete anaesthesia (scale: 1) in 50% of the embryos at a given concentration (EC50).
The EC50 values are calculated using GraphPad Prism® software to analyze the log (dose) response curves.
For `CC(C)=CCC/C(C)=C/CN` (single isomer, unassigned) [NQ 2981, (E)-3,7-dimethylocta-2,6-dien-1-amine], a half-maximal effect (EC50) was put at 217 µM. `COC/C=C(\C)CCC=C(C)C` [NQ 2976, (E)-1-methoxy-3,7-dimethylocta-2,6-diene] had an EC50 of 874 µM.

On to `CC(C)=CCCC(C)=CC(=O)O` [NQ 2978, 3,7-dimethyloct-2,6-dienoic acid], for which a half-maximal response (EC50) required 71.1 µM. Regarding `CC(C)=CCC/C(C)=C/CNC(=O)c1ccccc1` [NQ 2982, (E)-N-(3,7-dimethylocta-2,6-dienyl)benzamide], it took 103 µM to reach a half-maximal effect (EC50). Molecule `CC(C)=CCC/C(C)=C/C(=O)O` [NQ 2984, (E)-3,7-dimethylocta-2,6-dienoic acid] yielded a 50% effective concentration (EC50) greater than 200 µM.

Turning to `CC(=O)NC/C=C(\C)CCC=C(C)C` [NQ 2985, (E)-N-(3,7-dimethylocta-2,6-dienyl)acetamide], the EC50 was 264 µM.

Molecule `CC(C)=CCC/C(C)=C/C(=O)Nc1ccccc1` [NQ 2986, (E)-3,7-dimethyl-N-phenylocta-2,6-dienamide] registered a concentration for a half-maximal effect (EC50) of 449 µM.

`CC(C)=CCC/C(C)=C/CNC(=O)c1ccccc1O` [NQ 2987, (E)-N-(3,7-dimethylocta-2,6-dienyl)-2-hydroxybenzamide] displayed a 50% effective concentration (EC50) of 134 µM.

The next assay concerns voltage-gated Na+ channels. The experiment in a line: Sodium (Na+) channel analysis in rat DRG neurons using whole cell patch-clamp. It is filed as cell-based. Conditions: Na+ currents in isolated rat DRG neurons, 3 min in presence of drug, read-out: IC50 range. The protocol: Isolated DRG neurons were suspended in primary neuron basal media and placed on glass coverslips for incubation in humidified atmosphere of 5% CO2 at 37° C. Coverslips carrying cells was transferred to the bath of an inverted microscope (Zeiss), continuously perfused with oxygenated artificial cerebro-spinal fluid (ACSF) containing (in mM) 124 NaCl, 2.5 KCl, 2 CaCl2, 1 MgSO4, 25 NaHCO3, 1 NaH2PO4, and 10 glucose, at a rate of 2-3 ml/min. Recording of whole-cell membrane currents were made at room temperature. Recording pipette (4-6 MS2) was filled with internal solution containing (in mM) 145 K-gluconate, 5 NaCl, 1 MgCl2, 0.2 EGTA, 10 HEPES, 2 Mg-ATP, 0.1 Na-GTP, and 10 phosphocreatine. To isolate Na^+ currents, DRG neurons were superfused with ACSF containing tetraethylammonium chloride (TEA) 5 mM, cesium chloride (CsCl) 100 μM and cadmium chloride (CdCl) 1 mM, to block potassium and calcium currents. NQ compounds were freshly dissolved in ASCF containing TEA, CsCl and CdCl, prior application via the bath.
For recording Na^+ currents, cells were held at −60 mV before applying a conditioning hyperpolarizing step (50 ms) to −90 mv to reactivate the voltage-gated Na^+ channels. The conditioning pulse was followed by depolarizing (150 ms) test pulses to 50 mV in 10 mV increments. Na^+ currents were recorded in absence, after 3 min in presence of the drugs and after a recovery time of 3 min.
Turning to `CC(C)=CCC/C(C)=C/CN` (single isomer, unassigned) [NQ 2981, (E)-3,7-dimethylocta-2,6-dien-1-amine], the IC50 was less than 100 µM. As for `COC/C=C(\C)CCC=C(C)C` [NQ 2976, (E)-1-methoxy-3,7-dimethylocta-2,6-diene], the IC50 lay within 1000 to 5000 µM. Same read-out and setting: in the case of `CC(C)=CCC/C(C)=C/COCc1ccccc1` [NQ 2977, (E)-((3,7-dimethylocta-2,6-dienyloxy)methyl)benzene] it was 1000 to 5000 µM. The same measure, in the same setting: the figure for `CC(C)=CCCC(C)=CC(=O)O` [NQ 2978, 3,7-dimethyloct-2,6-dienoic acid] is greater than 10000 µM; for `CC(C)=CCC/C(C)=C/CNC(=O)c1ccccc1` [NQ 2982, (E)-N-(3,7-dimethylocta-2,6-dienyl)benzamide] it is 1000 to 5000 µM. With `CC(C)=CCC/C(C)=C/C(=O)O` [NQ 2984, (E)-3,7-dimethylocta-2,6-dienoic acid], the IC50 was 1000 to 5000 µM. On to `CC(=O)NC/C=C(\C)CCC=C(C)C` [NQ 2985, (E)-N-(3,7-dimethylocta-2,6-dienyl)acetamide], for which the IC50 is 1000 to 5000 µM.

On to `CC(C)=CCC/C(C)=C/C(=O)Nc1ccccc1` [NQ 2986, (E)-3,7-dimethyl-N-phenylocta-2,6-dienamide], for which the IC50 lay within 5000 to 10000 µM. Still for that read-out and setting: the figure for `CC(C)=CCC/C(C)=C/CNC(=O)c1ccccc1O` [NQ 2987, (E)-N-(3,7-dimethylocta-2,6-dienyl)-2-hydroxybenzamide] is 1000 to 5000 µM; for `CC(C)=CCC/C(C)=C/C(=O)N(C)C` [NQ 2988, (E)-N,N,3,7-tetramethylocta-2,6-dienamide] it is 1000 to 5000 µM. The same measure, in the same setting: in the case of `CC(C)=CCC/C(C)=C/CN(C)C` [NQ 2990, (E)-N,N,3,7-tetramethylocta-2,6-dien-1-amine] it was 1000 to 5000 µM; in that of `CNC(=O)/C=C(\C)CCC=C(C)C` [NQ 2991, (E)-N,3,7-trimethylocta-2,6-dienamide], 1000 to 5000 µM. Turning to `CC(C)=CCC/C(C)=C/C(N)=O` [NQ 2992, (E)-3,7-dimethylocta-2,6-dienamide], the IC50 fell in the range of 100 to 1000 µM. With `CC(C)=CCC/C(C)=C\C=O` [NQ 3000, (Z)-3,7-dimethylocta-2,6-dienal], the IC50 was 5000 to 10000 µM.

As for `CC(C)=CCC/C(C)=C\C(=O)O` [NQ 3001, (Z)-3,7-dimethylocta-2,6-dienoic acid], the IC50 was greater than 10000 µM. The same measure, in the same setting: the figure for `CNC/C=C(\C)CCC=C(C)C` [NQ 3007, (E)-N,3,7-trimethylocta-2,6-dien-1-amine] is 1000 to 5000 µM.

`CC(C)=CCCC(C)=Cc1nn[nH]n1` [NQ 3045, 5-(2,6-dimethylhepta-1,5-dien-1-yl)-2H-tetrazole]: the IC50 lay within 1000 to 5000 µM. The same measure, in the same setting: the figure for `CC(C)=CCC/C(C)=C/S(C)(=O)=O` [NQ 3047, (E)-2,6-dimethyl-1-(methylsulfonyl)hepta-1,5-diene] is 1000 to 5000 µM; for `CC(C)=CCC/C(C)=C\S(=O)(=O)N(C)C` [NQ 3050, (Z)-N,N,2,6-tetramethylhepta-1,5-diene-1-sulfonamide] it is 100 to 1000 µM; for `CC(C)=CCC/C(C)=C/S(=O)(=O)N(C)C` [NQ 3051, (E)-N,N,2,6-tetramethylhepta-1,5-diene-1-sulfonamide] it is 100 to 1000 µM. For `CON(C)C(=O)/C=C(\C)CCC=C(C)C` [NQ 3052, (E)-N-methoxy-N,3,7-trimethylocta-2,6-dienamide], the IC50 fell in the range of 100 to 1000 µM. For `CC(C)=CCC/C(C)=C/CS(C)(=O)=O` [NQ 3053, (E)-3,7-dimethyl-1-(methylsulfonyl)octa-2,6-diene], the IC50 is 1000 to 5000 µM. On the same count and under the same terms, the figure for `CC(C)=CCC/C(C)=C/C[S+](C)[O-]` (stereo not shown) [NQ 3054, (E)-3,7-dimethyl-1-(methylsulfinyl)octa-2,6-diene] is 1000 to 5000 µM; for `CC(C)=CCC/C(C)=C/C(=O)N(C)O` [NQ 3055, (E)-N-hydroxy-N,3,7-trimethylocta-2,6-dienamide] it is 100 to 1000 µM. Take `CC(C)=CCC/C(C)=C/[S+](C)[O-]` (stereo not shown) [NQ 3057, (E)-2,6-dimethyl-1-(methylsulfinyl)hepta-1,5-diene]: the IC50 was 1000 to 5000 µM. Same read-out and setting: in the case of `CNS(=O)(=O)/C=C(\C)CCC=C(C)C` [NQ 3060, (E)-N,2,6-trimethylhepta-1,5-diene-1-sulfonamide] it was 1000 to 5000 µM. Still for that read-out and setting: in the case of `CNS(=O)(=O)/C=C(/C)CCC=C(C)C` [NQ 3061, (Z)-N,2,6-trimethylhepta-1,5-diene-1-sulfonamide] it was 100 to 1000 µM; in that of `CC(C)=CCC/C(C)=C\[S+](C)[O-]` (stereo not shown) [NQ 3062, (Z)-2,6-dimethyl-1-(methylsulfinyl)hepta-1,5-diene], 1000 to 5000 µM.

In the case of `CC(C)=CCC/C(C)=C/S(N)(=O)=O` [NQ 3063, (E)-2,6-dimethylhepta-1,5-diene-1-sulfonamide], the IC50 is 1000 to 5000 µM.

Turning to `CC(C)=CCC/C(C)=C/S(=O)(=O)NCC(F)(F)F` [NQ 3064, (E)-2,6-dimethyl-N-(2,2,2-trifluoroethyl)hepta-1,5-diene-1-sulfonamide], the IC50 was in the range of 1000 to 5000 µM. Take `CC(C)=CCC/C(C)=C/C(O)C(F)(F)F` (stereo not shown) [NQ 3065, (E)-1,1,1-trifluoro-4,8-dimethylnona-3,7-dien-2-ol]: the IC50 lay in the range of 100 to 1000 µM. Same read-out and setting: the figure for `CC(C)=CCC/C(C)=C/C(=O)C(F)(F)F` [NQ 3066, (E)-1,1,1-trifluoro-4,8-dimethylnona-3,7-dien-2-one] is 1000 to 5000 µM; for `CC(C)=CCC/C(C)=C/C(O)(C(F)(F)F)C(F)(F)F` [NQ 3067, (E)-1,1,1-trifluoro-4,8-dimethyl-2-(trifluoromethyl)nona-3,7-dien-2-ol] it is 100 to 1000 µM; for `CC(C)=CCC/C(C)=C\S(=O)(=O)NCC(F)(F)F` [NQ 3069, (Z)-2,6-dimethyl-N-(2,2,2-trifluoroethyl)hepta-1,5-diene-1-sulfonamide] it is 100 to 1000 µM.

As for `CC(C)=CCC/C(C)=C/S(=O)(=O)Nc1ccccc1` [NQ 3070, (E)-2,6-dimethyl-N-phenylhepta-1,5-diene-1-sulfonamide], the half-inhibitory concentration (IC50) lay within 100 to 1000 µM. For the molecule `CC(C)=CCC/C(C)=C/S(=O)(=O)NCc1ccccc1` [NQ 3071, (E)-N-benzyl-2,6-dimethylhepta-1,5-diene-1-sulfonamide], the IC50 is 100 to 1000 µM. For the molecule `CCC(N)/C=C(\C)CCC=C(C)C` (stereo not shown) [NQ 3078, (E)-5,9-dimethyldeca-4,8-dien-3-amine], the IC50 was less than 100 µM. The same measure, in the same setting: in the case of `CC(C)=CCC/C(C)=C/C(C)N` (stereo not shown) [NQ 3079, (E)-4,8-dimethylnona-3,7-dien-2-amine] it was 100 to 1000 µM. Take `CCCC(N)/C=C(\C)CCC=C(C)C` (stereo not shown) [NQ 3081, (E)-6,10-dimethylundeca-5,9-dien-4-amine]: the IC50 is less than 100 µM. The same measure, in the same setting: in the case of `CC(C)=CCC/C(C)=C/C(N)C(C)C` (stereo not shown) [NQ 3082, (E)-2,5,9-trimethyldeca-4,8-dien-3-amine] it was less than 100 µM; in that of `CC(C)=CCC/C(C)=C/C(O)C(C)C` (stereo not shown) [NQ 3083, (E)-2,5,9-trimethyldeca-4,8-dien-3-ol], 1000 to 5000 µM.

Take `CC(C)=CCC/C(C)=C/C(N)CCCO` (stereo not shown) [NQ 3084, (E)-4-amino-6,10-dimethylundeca-5,9-dien-1-ol]: the IC50 lay in the range of 100 to 1000 µM.

Take `CC(C)=CCC/C(C)=C/C(N)c1ccccc1` (stereo not shown) [NQ 3085, (E)-3,7-dimethyl-1-phenylocta-2,6-dien-1-amine]: the IC50 was less than 100 µM. Still for that read-out and setting: in the case of `CC(C)=CCC/C(C)=C/C(N)Cc1ccccc1` (stereo not shown) [NQ 3089, (E)-4,8-dimethyl-1-phenylnona-3,7-dien-2-amine] it was less than 100 µM.
